# Marks after values point to notes of the source that are not given here.
# How the values were obtained:
# Brucella suis 1330 = assay type: cell-based
# [1] = system: B. suis in J774A.1 murine macrophage-like cells; assay type: cell-based, Brucella suis
# Brucella melitensis 16M = assay type: cell-based
# Brucella abortus 2308 = assay type: cell-based
Substance,Log CFU/100 μL/well (Brucella suis 1330),Log reduction (Brucella suis 1330),inhibition of growth of B. suis in culture (in words) (Brucella suis 1330),Log CFU [1] [Log CFU],Log reduction [1],inhibition of intracellular B. suis (in words) [1],Log CFU/mL (Brucella suis 1330) [Log CFU/mL],effectiveness against B. melitensis 16M (in words) (Brucella melitensis 16M),effectiveness against B. abortus 2308 (in words) (Brucella abortus 2308)
"H-KFFKFFKFFK-O-catactcttcct-NH2 [Anti-lacZ, reference compound]",2.83 ± 0.13 Log CFU/100 μL/well,0.23,did not inhibit the growth,3.45 ± 0.31,+0.17,,,,
H-KFFKFFKFFK-O-catatcgtcgga-NH2 [gyrA],3.92 ± 0.06 Log CFU/100 μL/well,0.23,not in Brucella cultures,2.47 ± 0.51,0.81 ^*,showed significant inhibition,,,
H-KFFKFFKFFK-O-catcgtcgctc –NH2 [rpoB],0 ^* Log CFU/100 μL/well,,significantly inhibited the growth,,,,0,,
H-KFFKFFKFFK-O-cattacagatt-NH2 [dnaG],2.91 ± 0.02 Log CFU/100 μL/well,0.15,not in Brucella cultures,1.78 ± 0.56,1.50 ^*,showed significant inhibition,,,
H-KFFKFFKFFK-O-cattgtgtcgc-NH2 [tsf],1.02 ± 0.92 Log CFU/100 μL/well,2.04 ^*,significantly inhibited the growth,,,,,,
H-KFFKFFKFFK-O-catttttcgtct-NH2 [asd],3.27 ± 0.09 Log CFU/100 μL/well,,not in Brucella cultures,1.84 ± 0.50,1.44 ^*,showed significant inhibition,,,
H-KFFKFFKFFK-O-ctcatgtcgg-NH2 [acpP],3.05 ± 0.10 Log CFU/100 μL/well,0.01,,3.37 ± 0.18,+0.09,,,,
H-KFFKFFKFFK-O-gctcatttcgc-NH2 [kdtA],1.56 ± 1.10 Log CFU/100 μL/well,1.50 ^*,significantly inhibited the growth,,,,,,
H-KFFKFFKFFK-O-ttcatgcctgt-NH2 [polA],0.54 ± 0.09 Log CFU/100 μL/well,,significantly inhibited the growth,2.27 ± 0.69,1.01 ^*,showed significant inhibition,,effective,effective

# From paper PMC3834731 (International journal of antimicrobial agents, 2013)
